Results: paper PMC3949622, “Macrocyclic Pyridyl Polyoxazoles: Structure-Activity Studies of the Aminoalkyl Side-Chain on G-Quadruplex Stabilization and Cytotoxic Activity” (Molecules, 2013)
Read-outs that look alike come from different tables or passages of the source.

Tests used:
[1] = system: RPMI 8402 cells; conditions: range given for analogs 1 and 2 together; ref [21]; read-out: IC50 against RPMI 8402 cells; cited from earlier work
Excerpt: (§1) Table 2 Relative cytotoxic activities. IC50 values (μM) ^a. | column: RPMI 8402 || The development of G-quadruplex stabilizers as a potential new class of anticancer agents hinges on the ability to design compounds that stabilize only G-quadruplexes and not other nucleic acid structures such as duplex or triplex DNA [15]. While a diverse array of compounds have been reported to stabilize G-quadruplex DNA [1], most also have some ability to stabilize duplex DNA. The natural product telomestatin for example, is reported to stabilize G-quadruplex DNA with 70:1 selectivity over duplex DNA [16, 17]. In contrast, the synthetic macrocyclic hexaoxazole HXDV (Figure 1) demonst ...

[2] = system: KB3-1 cells; conditions: range given for analogs 1 and 2 together; ref [21]; read-out: IC50 against KB3-1 cells; cited from earlier work
Excerpt: as §1, with “KB3-1 wt.” for “RPMI 8402”

[3] = system: human telomeric sequence d[T2G3(T2AG3)3A] (hTel) quadruplex DNA; assay: UV melting of hTel quadruplex DNA (G-quadruplex stabilization); type: binding; conditions: hTel 5 µM strand, drug 20 µM; for ΔTtran, hTel quadruplex DNA: change in Ttran induced by compound, UV melting at 295 nm, pH 7.5, K+ 150 mM, uncertainty ± 0.5 °C; for Ttran, hTel quadruplex DNA: first-derivative UV melting at 295 nm, 10 mM potassium phosphate pH 7.5, total K+ 150 mM, no drug: 64.6
Protocol: (§2) Each compound was evaluated for its ability to selectively bind and stabilize G-quadruplex DNA in the presence of K^+ ions (150 mM). Salmon testes (ST) DNA was employed as a model of duplex DNA and the human telomeric sequence d[T2G3(T2AG3)3A], denoted as hTel, was used as a model of quadruplex DNA. This sequence has been shown by Patel and co-workers, to exist as an intramolecular (3 + 1) G-quadruplex in which three strands are oriented in one direction and the fourth is oriented in the opposite direction in K^+ solution [35]. The first-derivative forms of the UV melting profiles for ST DNA and hTel DNA were recorded in the absence and presence of the various macrocycles. The ligand-induced changes, if any, in the transition temperature (Ttran) corresponding to the maxima (for quadruplex DNA) or minima (for duplex DNA) of these first-derivative melting profiles are listed in Table 1 for each macrocycle. With the exception of 8 which has a slight (<1 °C) destabilizing effect, none of the other macrocycles alters the thermal stability of ST duplex DNA to any significant extent and any observed changes in Ttran are within the experimental uncertainty. This observation is consistent with little or no duplex DNA binding by these macrocycles. Similar behavior has been observed for other macrocyclic pyridyl polyoxazoles. Temperature-Dependent Spectrophotometry. Temperature-dependent absorption experiments were conducted on an AVIV Model 14DS Spectrophotometer (Aviv Biomedical, Lakewood, NJ, USA) equipped with a thermoelectrically controlled cell holder. Quartz cells with a path length of 1.0 cm were used for all the absorbance studies. Temperature-dependent absorption profiles were acquired at either 260 nm (for ST duplex DNA) or 295 nm (for hTel quadruplex DNA) with a 5 s averaging time. The temperature was raised in 0.5 °C increments, and the samples were allowed to equilibrate for 1 min at each temperature setting. In the quadruplex melting studies, the hTel concentration was 5 µM in strand (120 μM in nucleotide). When present in these quadruplex studies, the drug concentrations were 20 µM. In the duplex melting studies the ST DNA concentrations were 15 µM base pair (30 μM in nucleotide) and, when present, the drug concentrations were 15 µM. The buffer for all the UV melting experiments contained 10 mM potassium phosphate (pH 7.5) and sufficient KCl (132 mM) to bring the total K^+ concentration to 150 mM. Prior to their use in the UV melting experiments, all nucleic acid solutions were preheated at 90 °C for 5 min and slowly cooled to room temperature over a period of 4 hr.

[4] = system: Salmon testes (ST) duplex DNA; assay: UV melting of salmon testes duplex DNA; type: binding; conditions: for ΔTtran, salmon testes duplex DNA: change in Ttran induced by compound, UV melting at 260 nm, pH 7.5, K+ 150 mM, uncertainty ± 0.5 °C; for ΔTtran, salmon testes duplex DNA / Ttran, salmon testes duplex DNA: ST DNA 15 µM base pair, drug 15 µM; for Ttran, salmon testes duplex DNA: first-derivative UV melting at 260 nm, 10 mM potassium phosphate pH 7.5, total K+ 150 mM, no drug: 86.6
Protocol: as §2

[5] = system: RPMI 8402 cells; assay: MTT cytotoxicity assay, RPMI 8402; type: cell-based, human; conditions: continuous exposure for four days
Protocol: (§3) Each N,N-dimethylamino-substituted macrocycle was also evaluated for cytotoxic activity against a human lymphoblastoma RPMI 8402 and a human epidermoid carcinoma KB3-1 cell line (Table 2). The results from these assays are informative about the relationship of structure to cytotoxic activity among the PyPX macrocyclic G-quadruplex stabilizers. […] An explanation for this observation is not clear at this time. The three-carbon analogs 12 and 22 have nearly equivalent activity at both positions, but these longer-chain analogs are generally lower in activity than the two-carbon analogs. Attachment of the dimethylamino group directly to the phenyl ring (8 and 19) leads to compounds having the greatest cytotoxic potency at their respective points of attachment. […] In general analogs that have an even number (0 or 2) of methylene spacer groups are more cytotoxic than those with an odd number. […] Moving the side-chain away from the phenyl ring and onto an oxazole ring also fails to improve cytotoxic activity.
(§4) Cytotoxicity was determined using the MTT-microtiter plate tetrazolinium assay (MTA). The human lymphoblast RPMI 8402 cell line was provided by Dr. Toshiwo Andoh (Aichi Cancer Center Research Institute, Nagoya, Japan). The KB3-1 cell line was obtained from K.V. Chin (The Cancer Institute of New Jersey, New Brunswick, NJ, USA). The cytotoxicity assay was performed using 96-well microtiter plates. Cells were grown in suspension at 37 °C in 5% CO2 and maintained by regular passage in RPMI medium supplemented with 10% heat inactivated fetal bovine serum, L-glutamine (2 mM), penicillin (100 U/mL), and Streptomycin (0.1 mg/mL). For determination of IC50 values, cells were exposed continuously for four days to varying concentrations of drug, and MTT assays were performed at the end of the fourth day. […] All assays were performed at least twice in six replicate wells.

[6] = system: KB3-1 cells; assay: MTT cytotoxicity assay, KB3-1; type: cell-based, human; conditions: continuous exposure for four days, means of at least two determinations ± standard deviation, read-out: IC50, KB3-1 wt.
Protocol: as §3, §4

[7] = Water-solubility (qualitative); type: physicochemical; conditions: qualitative statement, method not given
[8] = means of at least two determinations ± standard deviation

SMILES	IC50 [1] [nM]	IC50 [2] [nM]	ΔTtran, hTel quadruplex DNA [3] [°C]	Ttran, hTel quadruplex DNA [3] [°C]	ΔTtran, salmon testes duplex DNA [4] [°C]	Ttran, salmon testes duplex DNA [4] [°C]	destabilizing effect on ST duplex DNA (thermal stability) ([4]; size of the decrease in Ttran) [°C]	IC50 ([5]; single determination) [nM]	IC50 [6] [nM]	water-solubility [7]	IC50 [5, 8] [nM]
NCCc1cc2cc(c1)CNC(=O)c1coc(n1)-c1coc(n1)-c1cccc(n1)-c1nc(co1)-c1nc(co1)C(=O)NC2 [Compound 1]	90 to 180	30 to 40									
CN(C)c1ccc2cc1CNC(=O)c1coc(n1)-c1coc(n1)-c1cccc(n1)-c1nc(co1)-c1nc(co1)C(=O)NC2 [Compound 8, Pyridyl tetraoxazole macrocycle with a 4-(N,N-dimethylamino) group on the phenyl ring]			20.5	85.1	−0.9	85.7	< 1	120	30	significantly less water-soluble	
CN(C)CCc1ccc2cc1CNC(=O)c1coc(n1)-c1coc(n1)-c1cccc(n1)-c1nc(co1)-c1nc(co1)C(=O)NC2 [Compound 11, Pyridyl tetraoxazole macrocycle with a 4-[2-(N,N-dimethylamino)ethyl] group on the phenyl ring]			24.6	89.2	−0.4	86.2			70 ± 70		500 ± 400
CN(C)CCCc1ccc2cc1CNC(=O)c1coc(n1)-c1coc(n1)-c1cccc(n1)-c1nc(co1)-c1nc(co1)C(=O)NC2 [Compound 12, Pyridyl tetraoxazole macrocycle with a 4-[3-(N,N-dimethylamino)propyl] group on the phenyl ring]			7.1	71.7	−0.4	86.2			250 ± 70		400
CN(C)c1cc2cc(c1)CNC(=O)c1coc(n1)-c1coc(n1)-c1cccc(n1)-c1nc(co1)-c1nc(co1)C(=O)NC2 [Compound 19, Pyridyl tetraoxazole macrocycle with a 5-N,N-dimethylamino group on the phenyl ring]			15.5	80.1	−0.5	86.1			30	significantly less water-soluble	60 ± 10
CN(C)Cc1cc2cc(c1)CNC(=O)c1coc(n1)-c1coc(n1)-c1cccc(n1)-c1nc(co1)-c1nc(co1)C(=O)NC2 [Compound 20, Pyridyl tetraoxazole macrocycle with a 5-(N,N-dimethylaminomethyl) group on the phenyl ring]			0.1	64.7	−0.4	86.2			5500 ± 700		7000 ± 4200
CN(C)CCCc1cc2cc(c1)CNC(=O)c1coc(n1)-c1coc(n1)-c1cccc(n1)-c1nc(co1)-c1nc(co1)C(=O)NC2 [Compound 22, Pyridyl tetraoxazole macrocycle with a 5-[3-(N,N-dimethylamino)propyl] group on the phenyl ring]			28.6	93.2	−0.4	86.2			220 ± 130		500 ± 100
CN(C)CCc1oc2nc1C(=O)NCc1cccc(c1)CNC(=O)c1coc(n1)-c1coc(n1)-c1cccc(n1)-c1nc-2co1 [Compound 36, Pyridyl tetraoxazole macrocycle with a single 2-(N,N-dimethylamino)ethyl side chain]			4.6	69.2	−0.4	86.2			140 ± 20	good water-solubility	280 ± 40
CN(C)CCc1oc2nc1C(=O)NCc1cccc(c1)CNC(=O)c1nc(oc1CCN(C)C)-c1coc(n1)-c1cccc(n1)-c1nc-2co1 [Compound 37, Pyridyl tetraoxazole macrocycle with two 2-(N,N-dimethylamino)ethyl side chains]			1.6	66.2	−0.4	86.2			400 ± 100		1500
